Assay results taken from patent US5442065A, “Synthesis of tetrahydroquinoline enediyne core analogs of dynemicin” (Board of Regents, The University of Texas System, priority 1993, dated 1995).

B1: neocarzinostatin: clinically tested compound; positive reference compound (protein, UniProt P0A3R9 35-147, looked up)
Neocarzinostatin: AAPTATVTPSSGLSDGTVVKVAGAGLQAGTAYDVGQCAWVDTGVLACNPADFSSVTADANGSASTSLTVRRSFEGFLFDGTRWGTVDCTTAACQVGLSDAAGNGPEGVAISFN
modifications: enediyne chromophore

System: M109 tumor cells
Experiment: M109 solid tumor assay, five injections every two days (compared with neocarzinostatin and esperamicin A1)
Assay type: in vivo, female mice
Settings: for T/C value: reference compounds, dose not given; for lifespan and tumor growth delay (in words): standard compounds, solid tumor
Procedure: This assay involves development of a solid tumor in a mouse by injection of M109 tumor cells under the skin of the animal. Solid tumors, typically elliptical in shape, rapidly develop on the flank of the mouse at the site of injection. Progress of the tumor is determined by its size which is measured across each axis of the elongated mass. Straightforward computations of tumor volume combined with an assumed density of 1 g per cc yields a weight estimate which is accepted as an indication of the progress of tumor growth. Increase in lifespan (T/C values) of the animal and delay in tumor growth (T-C) to reach a predetermined size (typically measured as weight of the tumor) are generally accepted by those of skill in the art as endpoint parameters. […] In the particular M109 assay described and used to test the novel dynemicin analogs, the median time to establish a baseline tumor burden (arbitrarily set at 1 g tumor) was 4 days.
A standard M109 solid tumor assay was set up to compare compound 5582 and 4229 with neocarzinostatin and esperamicin A1. Female mice were injected subcutaneously with 0.1 mL of a 0.2% brei of M109 tumor cells, prepared from 2 g tumor per 100 mL PBS (phosphate buffered saline).
In another test, compounds 5582 and 4229 were evaluated in mice implanted with M109 on a 5 injection per day every two days schedule beginning on day 1 post implant and compared with SC tumored mice.

| Molecule | T/C value [days] | lifespan and tumor growth delay (in words) |
| --- | --- | --- |
| esperamicin A1 | 11 | increased lifespan and delay in tumor growth |
| B1 | 19.3 | increased lifespan and delay in tumor growth |
